Measured values reported in patent publication US10266497B2 (ABIDE THERAPEUTICS, INC., priority 2017, dated 2019).

What was measured:
MAGL [1] = target: T1, MAGL (Homo sapiens, UniProt Q99685); assay: In vitro competitive activity-based protein profiling, MAGL, human; details: for inhibition at 1 µM: read-out: MAGL % inh. 1 μM (human)
T1 sequence (Q99685 1-303): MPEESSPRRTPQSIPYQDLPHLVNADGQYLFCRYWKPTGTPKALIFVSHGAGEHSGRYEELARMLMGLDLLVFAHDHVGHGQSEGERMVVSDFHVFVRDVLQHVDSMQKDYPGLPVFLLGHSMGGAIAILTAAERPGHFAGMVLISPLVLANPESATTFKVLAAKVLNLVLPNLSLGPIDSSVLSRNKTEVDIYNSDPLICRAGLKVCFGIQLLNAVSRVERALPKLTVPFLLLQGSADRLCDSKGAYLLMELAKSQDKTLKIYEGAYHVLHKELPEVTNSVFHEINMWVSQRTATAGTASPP

MAGL [2] = target: T2, MAGL (Mus musculus, UniProt O35678); assay: In vitro competitive activity-based protein profiling, MAGL, mouse; details: read-out: MAGL % inh. 1 μM (mouse)
T2 sequence (O35678 1-303): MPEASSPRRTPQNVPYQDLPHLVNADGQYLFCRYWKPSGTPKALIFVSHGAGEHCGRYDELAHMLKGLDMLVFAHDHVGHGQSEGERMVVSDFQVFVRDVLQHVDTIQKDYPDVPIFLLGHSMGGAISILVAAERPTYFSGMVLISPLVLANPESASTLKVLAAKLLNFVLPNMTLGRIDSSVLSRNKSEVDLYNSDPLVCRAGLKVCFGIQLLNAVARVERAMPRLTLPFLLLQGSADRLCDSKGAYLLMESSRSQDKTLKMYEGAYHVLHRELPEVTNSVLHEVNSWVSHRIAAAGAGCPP

inhibition at 1 µM (MAGL [1])	inhibition at 1 µM (MAGL [2])	inhibition at 10 µM (MAGL [1]; read-out: MAGL % inh. (human) at 10 uM)	Compound
> 75%	> 75%		Cc1c(CO[C@H]2C[C@@H]3CN(C(=O)n4cc(Cl)c(C(=O)O)n4)C[C@@H]3C2)cccc1C(F)(F)F [Example 341, 4-chloro-1-(trans-5-((2-methyl-3-(trifluoromethyl)benzyl)oxy)octa-hydrocyclopenta[c]pyrrole-2-carbonyl)-1H-pyrazole-3-carboxylic acid]
> 75%	> 75%		O=C(O)c1ccn(C(=O)N2C[C@H]3C[C@H](OCc4ccc(Cl)c(-c5nccs5)c4)C[C@H]3C2)n1 [Example 345, 1-(trans-5-((4-chloro-3-(thiazol-2-yl)benzyl)oxy)octa-hydrocyclopenta[c]pyrrole-2-carbonyl)-1H-pyrazole-3-carboxylic acid]
> 75%	> 75%		Cc1cn(C(=O)N2CCN(Cc3cc(F)cc(Oc4ccc(Cl)cc4)c3)CC2)nc1C(=O)O [Example 346, 1-(4-(3-(4-chlorophenoxy)-5-fluorobenzyl)piper-azine-1-carbonyl)-4-methyl-1H-pyrazole-3-carboxylic acid]
> 75%	> 75%		C[C@@H]1CN(Cc2cc(F)cc(Oc3ccc(Cl)cc3)c2)CCN1C(=O)n1ccc(C(=O)O)n1 [Example 348, (R)-1-(4-(3-(4-chlorophenoxy)-5-fluorobenzyl)-2-methylpiperazine-1-carbonyl)-1H-pyrazole-3-carboxylic acid]
> 75%	> 75%		C[C@H]1CN(Cc2cc(F)cc(Oc3ccccc3Cl)c2)CCN1C(=O)n1ccc(C(=O)O)n1 [Example 349, (S)-1-(4-(3-(2-chlorophenoxy)-5-fluorobenzyl)-2-methylpiperazine-1-carbonyl)-1H-pyrazole-3-carboxylic acid]
> 75%	> 75%		C[C@@H]1CN(Cc2cc(F)cc(Oc3ccccc3Cl)c2)CCN1C(=O)n1ccc(C(=O)O)n1 [Example 350, (R)-1-(4-(3-(2-chlorophenoxy)-5-fluorobenzyl)-2-methylpiperazine-1-carbonyl)-1H-pyrazole-3-carboxylic acid]
> 75%	> 75%		C[C@@H]1CN(Cc2ccc(-c3ccccc3)cc2C(F)(F)F)CCN1C(=O)n1ccc(C(=O)O)n1 [Example 351, (R)-1-(2-methyl-4-((3-(trifluoromethyl)-[1,1′-biphenyl]-4-yl)methyl)piperazine-1-carbonyl)-1H-pyrazole-3-carboxylic acid]
> 75%	> 75%		O=C(O)c1ccn(C(=O)N2CCN(Cc3cccc(Oc4cnccc4C(F)(F)F)c3)CC2)n1 [Example 352, 1-(4-(3-((4-(trifluoromethyl)pyridin-3-yl)oxy)benzyl)piper-azine-1-carbonyl)-1H-pyrazole-3-carboxylic acid]
> 75%	> 75%		O=C(O)c1ccn(C(=O)N2CCN(Cc3cccc(Oc4cccc(C(F)(F)F)n4)c3)CC2)n1 [Example 353, 1-(4-(3-((6-(trifluoromethyl)pyridin-2-yl)oxy)benzyl)piper-azine-1-carbonyl)-1H-pyrazole-3-carboxylic acid]
> 75%	> 75%		O=C(O)c1ccn(C(=O)N2CCN(Cc3cccc(Oc4ccc(C(F)(F)F)nc4)c3)CC2)n1 [Example 354, 1-(4-(3-((6-(trifluoromethyl)pyridin-3-yl)oxy)benzyl)piper-azine-1-carbonyl)-1H-pyrazole-3-carboxylic acid]
> 75%	> 75%		O=C(O)c1ccn(C(=O)N2CCN(Cc3cccc(Oc4ccnc(C(F)(F)F)c4)c3)CC2)n1 [Example 355, 1-(4-(3-((2-(trifluoromethyl)pyridin-4-yl)oxy)benzyl)piper-azine-1-carbonyl)-1H-pyrazole-3-carboxylic acid]
> 75%	> 75%		O=C(O)c1ccn(C(=O)N2CCC3(CCN(Cc4cccc(-c5ccccc5)c4Cl)C3)CC2)n1 [Example 358, 1-(2-((2-chloro-[1,1′-biphenyl]-3-yl)methyl)-2,8-diazaspiro[4.5]decane-8-carbonyl)-1H-pyrazole-3-carboxylic acid]
0 to 25%	0 to 25%		O=C(O)c1ccn(C(=O)N2C[C@H]3C[C@@H](NCc4ccc(Oc5ccc(Cl)cc5)cc4)C[C@H]3C2)n1 [Example 363, 1-(cis-5-((4-(4-chlorophenoxy)benzyl)amino)octa-hydrocyclopenta[c]pyrrole-2-carbonyl)-1H-pyrazole-3-carboxylic acid]
> 75%	> 75%		O=C(O)c1nn(C(=O)N2C[C@H]3C[C@H](Oc4cccc(-c5ccccc5)c4)C[C@H]3C2)cc1C(F)(F)F [Example 369, 1-(trans-5-([1,1′-biphenyl]-3-yloxy)octahydro-cyclopenta[c]pyrrole-2-carbonyl)-4-(trifluoromethyl)-1H-pyrazole-3-carboxylic acid]

Further lines, the molecule ahead of its results:

Compound	inhibition at 1 µM (MAGL [1])	inhibition at 1 µM (MAGL [2])	inhibition at 10 µM (MAGL [1]; read-out: MAGL % inh. (human) at 10 uM)
O=C(O)c1ccn(C(=O)N2CCC(OCc3cc(N4CCCC4)cc(C(F)(F)F)c3)CC2)n1 [Example 331, 1-(4-((3-(pyrrolidin-1-yl)-5-(trifluoromethyl)benzyl)oxy)piper-idine-1-carbonyl)-1H-pyrazole-3-carboxylic acid]	> 75%	> 75%	
O=C(O)c1ccn(C(=O)N2CCN(Cc3ccc(C(F)(F)F)cc3N3CC[C@H](O)C3)CC2)n1 [Example 332, (S)-1-(4-(2-(3-hydroxypyrrolidin-1-yl)-4-(trifluoromethyl)benzyl)piperazine-1-carbonyl)-1H-pyrazole-3-carboxylic acid]	> 75%	> 75%	
O=C(O)c1ccn(C(=O)N2CCN(Cc3ccc(C(F)(F)F)cc3N3CC[C@@H](O)C3)CC2)n1 [Example 333, (R)-1-(4-(2-(3-hydroxypyrrolidin-1-yl)-4-(trifluoromethyl)benzyl)piperazine-1-carbonyl)-1H-pyrazole-3-carboxylic acid]	> 75%	> 75%	
O=C(O)c1ccn(C(=O)N2CCC3(CCN(Cc4cccc(C(F)(F)F)c4Cl)C3)CC2)n1 [Example 339, 1-(2-(2-chloro-3-(trifluoromethyl)benzyl)-2,8-diazaspiro[4.5]decane-8-carbonyl)-1H-pyrazole-3-carboxylic acid]	> 75%	> 75%	
O=C(O)c1ccn(C(=O)N2CCC3(CCN(Cc4cccc(Cl)c4C(F)(F)F)C3)CC2)n1 [Example 340, 1-(2-(3-chloro-2-(trifluoromethyl)benzyl)-2,8-diazaspiro[4.5]decane-8-carbonyl)-1H-pyrazole-3-carboxylic acid]	> 75%	> 75%	
O=C(O)c1ccn(C(=O)N2CCC3(CCN(Cc4ccc(Cl)c(N5CCCC5)c4)C3)CC2)n1 [Example 343, 1-(2-(4-chloro-3-(pyrrolidin-1-yl)benzyl)-2,8-diazaspiro[4.5]decane-8-carbonyl)-1H-pyrazole-3-carboxylic acid]	25 to 50%	0 to 25%	
O=C(O)c1nn(C(=O)N2CC3CN(Cc4cc(Cl)cc(C(F)(F)F)c4)CC3C2)cc1Cl (stereo not shown) [Example 357, 4-chloro-1-(5-(3-chloro-5-(trifluoromethyl)benzyl)octahydro-pyrrolo[3,4-c]pyrrole-2-carbonyl)-1H-pyrazole-3-carboxylic acid]	> 75%	> 75%	
CC1(NCc2ccc(C(F)(F)F)cc2N2CCCC2)CCN(C(=O)n2ccc(C(=O)O)n2)CC1 [Example 361, 1-(4-methyl-4-((2-(pyrrolidin-1-yl)-4-(trifluoromethyl)benzyl)amino)piper-idine-1-carbonyl)-1H-pyrazole-3-carboxylic acid]	> 75%	> 75%	
CN(Cc1ccc(C(F)(F)F)cc1N1CCC1)C1(C)CCN(C(=O)n2ccc(C(=O)O)n2)CC1 [Example 362, 1-(4-((2-(azetidin-1-yl)-4-(trifluoromethyl)benzyl)(methyl)amino)-4-methylpiperidine-1-carbonyl)-1H-pyrazole-3-carboxylic acid]	> 75%	> 75%	
O=C(O)c1ccn(C(=O)N2CCC3(CCN(C(=O)c4cc(Cl)ccc4C(F)(F)F)C3)CC2)n1 [Example 366, 1-(2-(5-chloro-2-(trifluoromethyl)benzoyl)-2,8-diazaspiro[4.5]decane-8-carbonyl)-1H-pyrazole-3-carboxylic acid]		0 to 25%	> 75%
O=C(O)c1nn(C(=O)N2CCN(Cc3ccc(N4CCCC4)cc3C(F)(F)F)CC2)cc1Cl [Example 368, 4-chloro-1-(4-(4-(pyrrolidin-1-yl)-2-(trifluoromethyl)benzyl)piperazine-1-carbonyl)-1H-pyrazole-3-carboxylic acid]	> 75%	> 75%	
O=C(O)c1ccn(C(=O)N2CCC3(CCN(Cc4cc(Cl)ccc4OC(F)(F)F)C3)CC2)n1 [Example 371, 1-(2-(5-chloro-2-(trifluoromethoxy)benzyl)-2,8-diazaspiro[4.5]decane-8-carbonyl)-1H-pyrazole-3-carboxylic acid]	> 75%	> 75%	
